Data on three compounds can be found in patent US20240190857A1, “METHODS FOR MANUFACTURE OF SMALL MOLECULE ACTIVATORS OF TIE-2” (EyePoint Pharmaceuticals, Inc., priority 2020, published 2024).

Molecules are shown by their SMILES. ≈ marks a conversion by molar mass, not a printed value. Where two headings read alike, the source gives them in different places.

The nature of this data set: Solubility of compounds in various solvents. The data set is classed as physicochemical. The settings on record: for solubility: organic solvent or mixture, read-out: Observation: solubility / saturation concentration (S.C.).

With `CN(C)C.COC(=O)N[C@@H](Cc1ccccc1)C(=O)N[C@@H](Cc1ccc(NS(=O)(=O)O)cc1)c1csc(-c2cccs2)n1` [Compound F-5, trimethylammonium (4-((S)-2-((S)-2-((methoxycarbonyl)amino)-3-phenylpropanamido)-2-(2-(thiophen-2-yl)thiazol-4-yl)ethyl)phenyl)sulfamate], under “MeOH, 17-22° C.”, the “Observation: solubility / saturation concentration (S.C.)” value is on record as “Soluble at 93 mg/mL”.
As for `COC(=O)N[C@@H](Cc1ccccc1)C(=O)N[C@@H](Cc1ccc(NS(=O)(=O)[O-])cc1)c1csc(-c2cccs2)n1.[Na+]` [Compound 1, sodium (4-((S)-2-((S)-2-((methoxycarbonyl)amino)-3-phenylpropanamido)-2-(2-(thiophen-2-yl)thiazol-4-yl)ethyl)phenyl)sulfamate], the solubility reads like this: (17 °C, Acetone, 17-22° C.) below 60 mg/mL; (17 °C, Acetone:H2O (80:20), 17-22° C.) at least 53 mg/mL; (17 °C, DMSO, 17-22° C.) at least 106 mg/mL; (17 °C, MeOH, 17-22° C.) around 30 mg/mL; (17 °C, THF, 17-22° C.) below 40 mg/mL.
In the case of `COC(=O)N[C@@H](Cc1ccccc1)C(=O)N[C@@H](Cc1ccc([N+](=O)[O-])cc1)c1csc(-c2cccs2)n1` [Compound F-3, methyl ((S)-1-(((S)-2-(4-nitrophenyl)-1-(2-(thiophen-2-yl)thiazol-4-yl)ethyl)amino)-1-oxo-3-phenylpropan-2-yl)carbamate], the solubility by setting is: (17 °C, DMF, 17-22° C.) at least 100 mg/mL; (17 °C, THF, 17-22° C.) around 5 mg/mL (≈ 9.32 mM); (17 °C, Toluene, 17-22° C.) below 5 mg/mL; (50 °C, THF, 50-55° C.) around 100 mg/mL (≈ 186 mM); (60 °C, 2-MeTHF, 60-65° C.) around 15 mg/mL (≈ 28 mM).
